Patent publication US9629828B2, “Methods of treating traveler's diarrhea and hepatic encephalopathy” (priority 2008, dated 2017)
Several values for one entry are separate records, joined by “and”; a condition that tells them apart may be missing. Equal entries are not always repeated. Entries after “also recorded” stand apart in the source; their conditions may differ.

Tests used:
[1] = test system: subjects in remission from hepatic encephalopathy (HE); assay: First study: asterixis grade (time to any increase, change from baseline); type: in vivo, human; conditions: for Probability of no increase in asterixis grade: Kaplan-Meier; for Probability of no increase in asterixis grade / Cumulative number of events (increase in asterixis grade) / Event probability (increase in asterixis grade during the treatment interval) / Number of events (increase in asterixis grade): ITT, N = 140
Procedure: Asterixis (flapping tremor) was determined with the subject holding both arms and forearms extended with wrists dorsiflexed and fingers open for ≧30 seconds. Asterixis was measured on a continuum of 5 grades, e.g., grades 0 and 4=no abnormal movement vs. almost continuous flapping motions, respectively as shown below:
Efficacy in regard to asterixis grade was measured as time to any increase from baseline in asterixis grade.
FIG. 12 illustrates time to any increase from baseline in asterixis grade by treatment group in the ITT population in the first study. Table 21 presents estimates of the proportions of subjects who had any increase in asterixis grade over the course of the Treatment Period and results of statistical analyses. Subjects who discontinued prior to experiencing an increase in asterixis grade and prior to completion of the 6-month treatment period were censored at the time of discontinuation.

[2] = test system: patients with hepatic encephalopathy; assay: First study: adverse events, rifaximin 550 mg BID; type: in vivo, human
Excerpt: Ninety-one percent of patients in the trial were taking lactulose concomitantly. […] (These include adverse events that may be attributable to the underlying disease.)
The following includes adverse events occurring at a greater incidence than placebo, regardless of causal relationship to drug exposure.
A total of 79.9% of subjects (239 of 299) experienced TEAEs during the course of the study.

[3] = test system: subjects with a history of recurrent, overt, episodic HE; assay: Second study (3002, open-label extension): breakthrough overt HE; type: in vivo, human
Procedure: Unlike the first study, subjects were not required to withdraw from the study after experiencing a breakthrough overt HE episode.
Conn scores and asterixis grades were assessed during the course of the study.
Therefore, the incidence of breakthrough overt HE over time during rifaximin therapy was evaluated. Table 24 presents breakthrough overt HE episodes by total number of HE episodes during the course of the study.
Most subjects in the second study (152 of 266) were also in the first study. […] The numbers of overt HE episodes experienced during the 6-month or 12-month intervals prior to the first study or prior to the second study were known.

[4] = test system: subjects with a history of recurrent, overt, episodic HE; assay: Second study: hospitalization rates; type: in vivo, human
Excerpt: Normalizing for subject exposure, this represents a hospitalization rate of 0.60 event/PEY. A total of 59 were hospitalized due HE episodes (e.g., HE-caused). Normalizing for subject exposure, this represents an HE-caused hospitalization rate of 0.29 event/PEY. […] All subjects were capable of worsening over time, and 24/266 subjects (9.0%) did so by 1 or 2 grades.

clinical = conditions: human, in vivo
Excerpt: Results from the current study were compared with historical data from subjects with normal hepatic function.

dogs = conditions: dog, in vivo
Procedure: However, plasma drug levels were not measured in these studies. […] The maximum plasma AUC0-8 hr values from the 6 month rat and 9 month dog toxicity studies (range: 42-127 ng·h/mL) was lower than the maximum plasma AUC0-8 hr values in cirrhotic patients (range: 19-306 ng·h/mL).

patients with HE [5] = type: in vivo, human
Excerpt: Total number of hospitalizations, duration of hospitalizations, HE endpoints, and cost of therapy were compared between the 2 treatment regimens.

patients with HE [6] = assay: Rifaximin 1200 mg/day: effect on blood ammonia and HE grade (50 patients); type: in vivo, human; conditions: for effect on HE grade: 1200 mg/day; for effect on blood ammonia: 1200 mg/day for 5-10 days
Excerpt: Correlation between ammonia reduction over time and HE was examined.
While discrete blood ammonia concentrations may be variable, serial measurements in individual patients have been associated with HE severity.

epithelial cells = assay: Effects of rifaximin on mammalian epithelial cells; type: cell-based
[7] = test system: subjects in remission from hepatic encephalopathy (HE); assay: First study: HE-related, HE-caused and all-cause hospitalization; type: in vivo, human
[8] = treatment interval 0 to <28 days
[9] = treatment interval 28 to <56 days
[10] = treatment interval 56 to <84 days
[11] = treatment interval 84 to <140 days
[12] = treatment interval 140 to <168 days

CO[C@H]1/C=C/O[C@@]2(C)Oc3c(C)c(O)c4c(O)c(c5c(nc6cc(C)ccn65)c4c3C2=O)NC(=O)/C(C)=C\C=C\[C@H](C)[C@H](O)[C@@H](C)[C@@H](O)[C@@H](C)[C@H](OC(C)=O)[C@@H]1C [rifaximin, (2S,16Z,18E,20S,21S,22R,23R,24R,25 S,26S,27S,28E)-5,6,21,23,25-pentahydroxy-27-methoxy-2,4,11,16,20,22,24,26-octamethyl-2,7-(epoxypentadeca-[1,11,13]trienimino)benzofuro[4,5-e]pyrido[1,2-á]-benzimidazole-1,15(2H)-dione,25-acetate]
Number of subjects in each level of change from baseline in asterixis grade ([1]; Baseline to EOT, level: r10 −2, r11 −1, r12 0, r13 1, r14 2, r15 3, r16 4): 18 (12.9%) n (%) | Probability of no increase in asterixis grade [1, 8]: 1.0000 | Probability of no increase in asterixis grade [1, 9]: 0.9048 | Probability of no increase in asterixis grade [1, 10]: 0.8499 | Probability of no increase in asterixis grade [1, 11]: 0.7910 | Probability of no increase in asterixis grade [1, 12]: 0.7637 | Probability of no increase in asterixis grade ([1]; treatment interval ≧168 days): 0.7534 | subjects with changes in asterixis grade of 1, 2, 3, or 4 ([1]; baseline to end of treatment): 11.6% | subjects with changes in asterixis grade of −2, −1, and 0 ([1]; baseline to end of treatment): 88.5% | prevention of worsening of asterixis grade, times versus placebo ([1]; in vivo): 1.92 times | reduction in risk of worsening of asterixis ([1]; in vivo): 35% | subjects with increases in asterixis grade ([1]; in vivo): 32 of 140 | time to first increase in Asterixis grade vs placebo (FIG. 5) ([1]; in vivo): increased time to the first increase in Asterixis grade | Cumulative number of events (increase in asterixis grade) [1, 8]: 13 | Event probability (increase in asterixis grade during the treatment interval) [1, 8]: 0.10 | Number of events (increase in asterixis grade) [1, 8]: 13 | Cumulative number of events (increase in asterixis grade) [1, 9]: 20 | Event probability (increase in asterixis grade during the treatment interval) [1, 9]: 0.06 | Number of events (increase in asterixis grade) [1, 9]: 7 | Cumulative number of events (increase in asterixis grade) [1, 10]: 27 | Event probability (increase in asterixis grade during the treatment interval) [1, 10]: 0.07 | Number of events (increase in asterixis grade) [1, 10]: 7 | Cumulative number of events (increase in asterixis grade) [1, 11]: 30 | Event probability (increase in asterixis grade during the treatment interval) [1, 11]: 0.03 | Number of events (increase in asterixis grade) [1, 11]: 3 | Cumulative number of events (increase in asterixis grade) [1, 12]: 31 | Event probability (increase in asterixis grade during the treatment interval) [1, 12]: 0.01 | Number of events (increase in asterixis grade) [1, 12]: 1 | Cumulative number of events (increase in asterixis grade) ([1]; treatment interval ≧168 days): 32 | Event probability (increase in asterixis grade during the treatment interval) ([1]; treatment interval ≧168 days): 0.03 | Number of events (increase in asterixis grade) ([1]; treatment interval ≧168 days): 1 | Abdominal distension ([2]; 550 mg BID, N = 140): 11 (7.9%) Number (%) of Patients | Abdominal pain ([2]; 550 mg BID, N = 140): 12 (8.6%) Number (%) of Patients | Abdominal pain upper ([2]; 550 mg BID, N = 140): 9 (6.4%) Number (%) of Patients | Anemia ([2]; 550 mg BID, N = 140): 11 (7.9%) Number (%) of Patients | Arthralgia ([2]; 550 mg BID, N = 140): 9 (6.4%) Number (%) of Patients | Ascites ([2]; 550 mg BID, N = 140): 16 (11.4%) Number (%) of Patients | Back pain ([2]; 550 mg BID, N = 140): 9 (6.4%) Number (%) of Patients | Constipation ([2]; 550 mg BID, N = 140): 9 (6.4%) Number (%) of Patients | Cough ([2]; 550 mg BID, N = 140): 10 (7.1%) Number (%) of Patients | Depression ([2]; 550 mg BID, N = 140): 10 (7.1%) Number (%) of Patients | Dizziness ([2]; 550 mg BID, N = 140): 18 (12.9%) Number (%) of Patients | Dyspnea ([2]; 550 mg BID, N = 140): 9 (6.4%) Number (%) of Patients | Edema peripheral ([2]; 550 mg BID, N = 140): 21 (15.0%) Number (%) of Patients | Fatigue ([2]; 550 mg BID, N = 140): 17 (12.1%) Number (%) of Patients | Insomnia ([2]; 550 mg BID, N = 140): 10 (7.1%) Number (%) of Patients | Muscle spasms ([2]; 550 mg BID, N = 140): 13 (9.3%) Number (%) of Patients | Nasopharyngitis ([2]; 550 mg BID, N = 140): 10 (7.1%) Number (%) of Patients | Nausea ([2]; 550 mg BID, N = 140): 20 (14.3%) Number (%) of Patients | Pruritus ([2]; 550 mg BID, N = 140): 13 (9.3%) Number (%) of Patients | Pyrexia ([2]; 550 mg BID, N = 140): 9 (6.4%) Number (%) of Patients | Rash ([2]; 550 mg BID, N = 140): 7 (5.0%) Number (%) of Patients | TEAE ascites ([2]; first study): 11.4% | TEAE diarrhea ([2]; first study): 10.7% | TEAE dizziness ([2]; first study): 12.9% | TEAE fatigue ([2]; first study): 12.1% | TEAE headache ([2]; first study): 10% | TEAE nausea ([2]; first study): 14.3% | TEAE peripheral edema ([2]; first study): 15% | early study discontinuation due to adverse reactions ([2]; in vivo): 6% | Subjects with ≧1 breakthrough overt HE episode ([3]; All Rifaximin N = 266): 72 (27.1) n (%) | Subjects with ≧1 breakthrough overt HE episode ([3]; Continuing Rifaximin N = 70): 18 (25.7) n (%) | Subjects with ≧1 breakthrough overt HE episode ([3]; New Rifaximin N = 196): 54 (27.6) n (%) | patients free of breakthrough ([3]; after almost 3 years): approximately 60% | subjects with 1 breakthrough HE episode ([3]; all rifaximin): 44 subjects | subjects with 2 breakthrough HE episodes ([3]; all rifaximin): 18 subjects | subjects with 3 or more breakthrough HE episodes ([3]; all rifaximin): Ten | reduction in risk of breakthrough HE, continuing subjects vs 3001 placebo ([3]; in vivo): 90% | subjects with breakthrough overt HE during rifaximin after crossover ([3]; in vivo): 15 of 82 | rate of breakthrough HE episodes adjusted for exposure ([3]; new rifaximin subjects): 0.38 events/PEY | subjects with >2 HE episodes during rifaximin therapy ([3]; up to 840 days, first plus second study): 3.6% | subjects hospitalized due HE episodes ([4]; in vivo): 59 subjects | subjects hospitalized for any cause ([4]; in vivo): 133 of 266 | HE-caused hospitalization rate ([4]; second study): 0.29 event/PEY | Cmax (clinical): < 4 ng/mL | AUC (clinical; 550 mg): 12.3 ng·h/mL | toxic effects (dogs): negligible toxic effects | patients with Conn scores of 3 or 4 (patients with HE [5]; end of treatment period): 6% | days hospitalized (patients with HE [5]; human, in vivo): 2.5 days | hospitalizations due to HE, cost, HE endpoints vs lactulose (patients with HE [5]; human, in vivo): dramatically reduced | patients with asterixis at end of treatment period (patients with HE [5]; human, in vivo): 63% | hospitalizations (patients with HE [5]; rifaximin 400 mg 3 times/day, lactulose 30 mL twice daily): 0.5 | effect on HE grade (patients with HE [6]): significant improvement in overall HE grade | effect on blood ammonia (patients with HE [6]): statistically significant blood ammonia reduction; also recorded: lowers ammonia levels | effect on blood ammonia (patients with HE [6]; listed as Rifaximin): decreased blood ammonia | effect on HE grade (patients with HE [6]; listed as Rifaximin): improvement in HE grade | effect on epithelial cells (epithelial cells): resistant to bacterial colonization and internalization | all-cause hospitalization rate [7]: 0.92 events/PEY and 0.90 events/PEY
